Source: PubChem BioAssay AID1963835 (Molecular Pharmacology Branch, DTP, NCI, 2024)

Tested on: 699152-130-R-J1-PDC complex spheroid viability
Experiment: Anticancer human tumor 699152-130-R-J1-PDC patient-derived pancreatic carcinoma cell line growth inhibition [POLQ]
Conditions: for viability, T/C: stronger effect = lower value
Experimental: Multicellular complex tumor spheroid response to Polymerase (POL) inhibitors (novobiocin, ART-558, RP6685) in combination with a variety of drugs and investigational agents in selected tumor cell lines
The POL inhibitors (novobiocin, ART-558, and RP6685) were evaluated both individually and in combination with standard of care and investigational anticancer small molecules within a complex spheroid model of solid tumors. . Complex spheroids include a stromal component modeled by human endothelial cells (HUVEC) and fibroblasts modeled by human mesenchymal stem cells (MSCs). The concentration ranges selected for each drug and investigational agent were based upon clinically achievable concentrations if the clinical Cmax of the agent was known.
Compounds. The drugs and investigational agents: novobiocin (NSC847541), ART-558 (NSC835418), RP-6685 (NSC848927), peposertib (NSC802822), ceralasertib (NSC780249), elimusertib (NSC800525), camonsertib (NSC841442), AZD-1390 (NSC803789), olaparib (NSC753686), talazoparib (NSC767125), rucaparib (NSC756644), sotorasib (NSC818433), MRTX-1133 (NSC836407), SN-38 (NSC673596), topotecan (NSC609699), epotoside (NSC141540), doxorubicin (NSC123127), gemcitabine (NSC613327), 5-fluorouracil (NSC19893), paclitaxel (NSC125973), vemurafenib (NSC761431), MSA-2 (NSC828583), SN-011 (NSC837082), adavosertib (NSC754352), prexasertib (NSC758257), carboplatin (NSC241240) and oxaliplatin (NSC266046), were obtained from the National Cancer Institute (NCI) Developmental Therapeutics Program Chemical Repository (21). The FDA-approved anticancer drug set is available from the Developmental Therapeutics Program at https://dtp.cancer.gov/organization/dscb/obtaining/. […] The stock solutions were prepared in dimethyl sulfoxide (DMSO, Sigma-Aldrich, St. Louis, MO, cat. D2650), except for the platinum compounds which were prepared in saline (Quality Biological, Gaithersburg, MD, cat. 114-055-101), at 800-fold the tested concentration and stored at -70 degrees C prior to their use. All drugs and investigational agents were tested over a range starting from a high concentration at or near the clinical Cmax and decreasing in half-log increments. If the clinical Cmax for an agent had not been determined, the highest concentration tested was 10 microM, except for SN-38, which was tested at a high concentration of 1 microM.
Cell Culture. All cells were maintained in an incubator at 37 degrees C and 5% CO2 with 95% humidity. The PDC lines were cultured according to standard operating procedures established by the NCI PDMR (https://pdmr.cancer.gov). Table 3 of the manuscript, lists the cell lines along with the number of the three cell types plated to form the mct-spheroids and media for tumor cell growth. After thawing, all PDC lines, except 997537-175-T-J1-PDC and 415267-285-R-J2-PDC, were cultured in Matrigel-coated flasks prepared with a working solution of 1X Ham's F-12 nutrient mix, without supplementation (Thermo Fisher Scientific, cat. 11765054), 100 U/mL penicillin-streptomycin (Thermo Fisher Scientific, cat. 15140122), and 2.5% Matrigel (Corning Inc., Corning, NY, cat. 354248) for the first three passages. The two PDC lines 997537-175-T-J1-PDC and 415267-285-R-J2-PDC were cultured on uncoated flasks. The 857933-349-R-J2-PDC line was cultured in 6C/Colon 1B media containing advanced DMEM/F-12 (Thermo Fisher Scientific, cat. 12634028), 10 mM HEPES (Thermo Fisher Scientific, cat. 15630080), 1X GlutaMAX supplement (Thermo Fisher Scientific, cat. 35050061), 0.1 mg/mL primocin (InvivoGen, San Diego, CA, cat. ant-pm-2), 10% defined fetal bovine serum, heat inactivated (HyClone Laboratories Inc., Logan, UT, cat. SH30070.03HI), 50% L-WRN conditioned media (ATCC, cat. CRL-3276), 1.25 mM N-Acetyl-L-cysteine (Sigma-Aldrich, cat. A9165), 10 mM nicotinamide (Sigma-Aldrich, cat. N0636), 1X B-27 supplement (Thermo Fisher Scientific, cat. 17504044), 1X N-2 supplement (Thermo Fisher Scientific, cat. […]

[1] = curve of first compound, second compound 0.0316 µM
[2] = curve of first compound, second compound 0.1 µM
[3] = curve of first compound, second compound 0.316 µM
[4] = curve of first compound, second compound 1 µM
[5] = curve of first compound, second compound 3.16 µM
[6] = curve of first compound, second compound 10 µM
[7] = second compound 0.0316 µM, first compound 0.0316 µM
[8] = second compound 0.0316 µM, first compound 0.1 µM
[9] = second compound 0.0316 µM, first compound 0.316 µM
[10] = second compound 0.0316 µM, first compound 1 µM
[11] = second compound 0.0316 µM, first compound 3.16 µM
[12] = second compound 0.0316 µM, first compound 10 µM
[13] = second compound 0.1 µM, first compound 0.0316 µM
[14] = second compound 0.1 µM, first compound 0.1 µM
[15] = second compound 0.1 µM, first compound 0.316 µM
[16] = second compound 0.1 µM, first compound 1 µM
[17] = second compound 0.1 µM, first compound 3.16 µM
[18] = second compound 0.1 µM, first compound 10 µM
[19] = second compound 0.316 µM, first compound 0.0316 µM
[20] = second compound 0.316 µM, first compound 0.1 µM
[21] = second compound 0.316 µM, first compound 0.316 µM
[22] = second compound 0.316 µM, first compound 1 µM
[23] = second compound 0.316 µM, first compound 3.16 µM
[24] = second compound 0.316 µM, first compound 10 µM
[25] = second compound 1 µM, first compound 0.0316 µM
[26] = second compound 1 µM, first compound 0.1 µM
[27] = second compound 1 µM, first compound 0.316 µM
[28] = second compound 1 µM, first compound 1 µM
[29] = second compound 1 µM, first compound 3.16 µM
[30] = second compound 1 µM, first compound 10 µM
[31] = second compound 3.16 µM, first compound 0.0316 µM
[32] = second compound 3.16 µM, first compound 0.1 µM
[33] = second compound 3.16 µM, first compound 0.316 µM
[34] = second compound 3.16 µM, first compound 1 µM
[35] = second compound 3.16 µM, first compound 3.16 µM
[36] = second compound 3.16 µM, first compound 10 µM
[37] = second compound 10 µM, first compound 0.0316 µM
[38] = second compound 10 µM, first compound 0.1 µM
[39] = second compound 10 µM, first compound 0.316 µM
[40] = second compound 10 µM, first compound 1 µM
[41] = second compound 10 µM, first compound 3.16 µM
[42] = second compound 10 µM, first compound 10 µM
[43] = compound alone, run of 12/05/2023
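Note: spheroids exposed to agents for 7 days before viability reading.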
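Throughout, for viability, T/C: percent of DMSO vehicle control viability so 100% = vehicle and 0% = no viable signal.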

CCCS(=O)(=O)Nc1ccc(F)c(C(=O)c2c[nH]c3ncc(-c4ccc(Cl)cc4)cc23)c1F + Nc1ccc(C#CCN(C(=O)Cc2ncc(C(F)(F)F)cc2C(F)(F)F)c2ccc(F)cc2)nn1
IC50 [1]: 8.52 µM | IC50 [2]: 8.88 µM | IC50 [3]: 8.62 µM | IC50 [4]: 8.35 µM | IC50 [5]: 9.38 µM | IC50 [6]: > 10 µM | viability, T/C [7]: 101% | viability, T/C [8]: 113% | viability, T/C [9]: 118% | viability, T/C [10]: 167% | viability, T/C [11]: 167% | viability, T/C [12]: 36.3% | viability, T/C [13]: 109% | viability, T/C [14]: 117% | viability, T/C [15]: 119% | viability, T/C [16]: 143% | viability, T/C [17]: 188% | viability, T/C [18]: 40% | viability, T/C [19]: 111% | viability, T/C [20]: 113% | viability, T/C [21]: 132% | viability, T/C [22]: 175% | viability, T/C [23]: 184% | viability, T/C [24]: 36.2% | viability, T/C [25]: 96.2% | viability, T/C [26]: 116% | viability, T/C [27]: 119% | viability, T/C [28]: 133% | viability, T/C [29]: 166% | viability, T/C [30]: 35.8% | viability, T/C [31]: 114% | viability, T/C [32]: 123% | viability, T/C [33]: 124% | viability, T/C [34]: 163% | viability, T/C [35]: 179% | viability, T/C [36]: 44.5% | viability, T/C [37]: 124% | viability, T/C [38]: 128% | viability, T/C [39]: 131% | viability, T/C [40]: 161% | viability, T/C [41]: 192% | viability, T/C [42]: 52.9%

Cc1cccc(N(C)C(=O)C2C(O)CCN2c2nc(C)cc(C(F)(F)F)c2C#N)c1 (stereo not drawn)
viability, T/C (compound 0.0316 µM): 105% [middle of 13 runs] | viability, T/C (compound 0.1 µM): 102% [middle of 13 runs] | viability, T/C (compound 0.316 µM): 101% [middle of 13 runs] | viability, T/C (compound 1 µM): 104% [middle of 13 runs] | viability, T/C (compound 10 µM): 102% [middle of 13 runs] | IC50 (compound alone, run of 11/27/2023): > 10 µM | IC50 [43]: > 10 µM

Nc1ccc(C#CCN(C(=O)Cc2ncc(C(F)(F)F)cc2C(F)(F)F)c2ccc(F)cc2)nn1
viability, T/C (compound 0.0316 µM): 96.2% [middle of 13 runs] | viability, T/C (compound 0.1 µM): 99.3% [middle of 13 runs] | viability, T/C (compound 0.316 µM): 101% [middle of 13 runs] | viability, T/C (compound 1 µM): 101% [middle of 13 runs] | viability, T/C (compound 3.16 µM): 103% [middle of 13 runs] | viability, T/C (compound 10 µM): 113% [middle of 13 runs] | IC50 [43]: > 10 µM

C=CC(=O)N1CCN(c2nc(=O)n(-c3c(C)ccnc3C(C)C)c3nc(-c4c(O)cccc4F)c(F)cc23)C(C)C1 (stereo not drawn) + Nc1ccc(C#CCN(C(=O)Cc2ncc(C(F)(F)F)cc2C(F)(F)F)c2ccc(F)cc2)nn1
IC50 [1]: > 10 µM | IC50 [2]: > 10 µM | IC50 [3]: > 10 µM | IC50 [4]: > 10 µM | IC50 [5]: > 10 µM | IC50 [6]: > 10 µM | viability, T/C [7]: 99% | viability, T/C [8]: 91.6% | viability, T/C [9]: 102% | viability, T/C [10]: 117% | viability, T/C [11]: 115% | viability, T/C [12]: 103% | viability, T/C [13]: 92.8% | viability, T/C [14]: 89.6% | viability, T/C [15]: 106% | viability, T/C [16]: 116% | viability, T/C [17]: 123% | viability, T/C [18]: 113% | viability, T/C [19]: 102% | viability, T/C [20]: 106% | viability, T/C [21]: 98.8% | viability, T/C [22]: 118% | viability, T/C [23]: 119% | viability, T/C [24]: 97.4% | viability, T/C [25]: 104% | viability, T/C [26]: 105% | viability, T/C [27]: 103% | viability, T/C [28]: 111% | viability, T/C [29]: 124% | viability, T/C [30]: 117% | viability, T/C [31]: 103% | viability, T/C [32]: 125% | viability, T/C [33]: 102% | viability, T/C [34]: 119% | viability, T/C [35]: 114% | viability, T/C [36]: 95.9% | viability, T/C [37]: 110% | viability, T/C [38]: 110% | viability, T/C [39]: 122% | viability, T/C [40]: 109% | viability, T/C [41]: 125% | viability, T/C [42]: 121%
